# Experimental data reported in PMC2923493 (Tetrahedron, 2010).
# Read-outs that look alike come from different tables or passages of the source.
# Tests used:
# [1] = molecular target: T1, chymotrypsin-like proteasome activity (Homo sapiens, UniProt P28074); assay: Proteasome inhibition assay; type: biochemical
# T1 sequence (P28074 60-263): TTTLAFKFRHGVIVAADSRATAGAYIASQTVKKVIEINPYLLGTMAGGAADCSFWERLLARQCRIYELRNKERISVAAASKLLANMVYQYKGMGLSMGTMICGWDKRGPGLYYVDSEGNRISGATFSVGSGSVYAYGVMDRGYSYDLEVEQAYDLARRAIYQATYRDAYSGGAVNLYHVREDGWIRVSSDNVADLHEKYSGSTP
# [2] = tested on: HT-29 human colon cancer cells; assay: Cytotoxicity assay; type: cell-based; conditions: HT-29 cells, three days
# [3] = tested on: LNCaP, HT-29, MCF-7 and MDA-MB 435 human cancer cells; assay: In vivo hollow fiber assay; conditions: highest dose tested (20 mg/kg), mice, intraperitoneal, all cell lines
# human SPC-A1 cell [4] = conditions: cited from earlier work
# human SPC-A1 cell [5] = conditions: cited from earlier work; remark: listed apart in the source
# [6] = read-out: Proteasome Inhibition IC50, Suc-LLVY-AMC 10 μM
"IC50 [1, 6] [µM]",Compound,Cytotoxicity ED50 [2] [µM],further results
4.4,"O=C1c2c(O)cc(O)cc2O[C@@H](c2ccc(O)cc2)[C@@H]1c1c(O)cc(O)c2c(=O)cc(-c3ccc(O)cc3)oc12 [Compound 9, talbotaflavone]",–,–
> 10,"CC(C)=CCc1c(O)c(CC=C(C)C)c2c(c1O)C(=O)C1=C[C@H]3C[C@@H]4C(C)(C)O[C@@](C/C=C(/C)C(=O)O)(C3=O)[C@@]14O2 [Compound 4, isogaudichaudiic acid]",3.2,–
> 10,"C=C(C)C(O)Cc1c2c(c(O)c3c1O[C@]14C(=C[C@H]5C[C@@H]1C(C)(C)O[C@@]4(C/C=C(\C)C(=O)O)C5=O)C3=O)C=CC(C)(C)O2 (some centres unmarked) [Compound 5, isogaudichaudiic acid E]",2.6,–
–,"CC1(C)Oc2c(cc3c(=O)c4c(O)cc(O)cc4oc3c2O)[C@H](O)[C@H]1O [Compound 2, (3R,4S)-3,4,7,9,12-pentahydroxy-2,2-dimethyl-3,4-dihydropyrano[3,2-b]xanthen-6(2H)-one]",>10,–
–,"O=C1c2c(O)cc(O)cc2O[C@H](c2ccc(O)cc2)[C@H]1c1c(O)cc(O)c2c(=O)cc(-c3ccc(O)c(O)c3)oc12 [Compound 8, morelloflavone]",>10,IC50 [1]: 1.3 µM
–,"CC(C)=CCc1c2c(c(O)c3c1O[C@]14C(=C[C@H]5C[C@@H]1C(C)(C)O[C@@]4(C/C=C(/C)C(=O)O)C5=O)C3=O)CC(O)C(C)(C)O2 (stereo partly drawn) [Compound 6, (5R,7S,10aS,27S)-11,12-dihydro-12-hydroxymorellic acid]",2.9,–
–,isogaudichaudiic acid B [Compound 7],>10,–
–,CC(C)=CCC[C@]1(C)C=Cc2c(O)c3c(c(CC=C(C)C)c2O1)O[C@]12C(=C[C@@H]4C[C@H]1C(C)(C)O[C@@]2(C/C=C(/C)C(=O)O)C4=O)C3=O [gambogic acid],–,Inhibition of SPC-A1 cell growth in vitro (human SPC-A1 cell [4]): inhibited; Inhibition of SPC-A1 cell growth in vivo (human SPC-A1 cell [5]): inhibited

Compound,"IC50 [1, 6] [µM]",Cytotoxicity ED50 [2] [µM],further results
"CC(C)=CCc1c2c(c(O)c3c1O[C@]14C(=C[C@@H]5C[C@H]1C(C)(C)O[C@@]4(C/C=C(/C)C(=O)O)C5=O)C3=O)C=CC(C)(C)O2 [Compound 10, morellic acid]",> 10,0.36,Activity in in vivo hollow fiber assay [3]: inactive
"CO[C@H]1[C@H]2C(=O)c3c(O)c4c(c(CC=C(C)C)c3O[C@@]23[C@@H]2C[C@H]1C(=O)[C@]3(C/C=C(/C)C(=O)O)OC2(C)C)OC(C)(C)C=C4 [Compound 3, isomoreollic acid]",> 10,1.9,–
